Test results taken from patent publication US20240009314A1, “COMPOSITIONS AND METHODS FOR TARGETING TUMOR-ASSOCIATED MACROPHAGES” (Resolute Science, priority 2020, published 2024).

What was measured:
[1] = system: MC38 tumor cells; assay: Anti-tumor activity in MC38 colon cancer mouse model; type: in vivo; settings: 40 mg/kg intraperitoneally q3 days×4
Protocol: Specifically, 8- to 12-week-old C57BL/6 female mice (Charles River Laboratories) were inoculated with 5×10^5 MC38 tumor cells in 0% Matrigel subcutaneously in the flank in a volume of 0.1 mL/mouse on Study Day 0. A pair match was performed when the tumors reached an average size of 80-120 mm 3 at which time treatment began.
The dosing volume was adjusted for body weight. Gemcitabine was administered at a dosage of 40 mg/kg and delivered intraperitoneally q3 days×4. Tumor was measured by calipers twice a week. Body weight was measured every day for 5 days and then bi-weekly to the end of the study. (n=10/group). The endpoint of study was when tumor volume reached 1500 mm^3.

[2] = system: GL261 cells; assay: Anti-tumor activity in immunocompetent GL261 glioma mouse model; type: in vivo
Protocol: The anti-tumor activity of Target-5 was assessed in vivo using an immunocompetent glioma mouse model. Three distinct doses of Target-5 were evaluated against Temozolomide, an FDA-approved chemotherapeutic agent, and a vehicle control in C57BL/6 mice.
Specifically, female C57BL/6 mice (Jackson Laboratories) were inoculated with 5×10^6 GL261 cells (mycoplasma tested-negative) with 96% viability and 100% tumor take rate (cell passages prior to plating (#7)).
Target-5 was formulated in 0.9% saline and the mice were treated twice a week with either 5 mg/kg, 7.5 mg/kg, or 10 mg/kg Target-5 by tail vein injection. The dosing volume was adjusted for body weight. Temozolomide was formulated in 10% DMSO in 0.9% sodium chloride and mice were treated twice a week by gavage at a dosage of 12.5 mg/kg. n=10 for each group.

Compound	tumor volume compared to Target-5 groups [1]	change in body weight ([2]; any treatment group, FIG. 8C)	Mean tumor volume ([2]; day 21, 12.5 mg/kg twice a week by gavage) [mm^3]
Nc1ccn([C@@H]2O[C@H](CO)[C@@H](O)C2(F)F)c(=O)n1 [Gemcitabine]	appeared to reduce tumor volume more	–	–
Cn1nnc2c(C(N)=O)ncn2c1=O [temozolomide]	–	no significant change	302.6
